Laboratory results: US20080319065A1, “Systemic and Intrathecal Effects of a Novel Series of Phospholipase A2 Inhibitors on Hyperalgesia and Spinal Pge2 Release” (The Regents of the University of California, priority 2005, published 2008)

Assays:
[1] = target: T1, Group VIA iPLA2 (GVIA PLA2) (Homo sapiens, UniProt O60733); test: In vitro Group VIA iPLA2 mixed micelle assay; assay type: biochemical
T1 sequence (O60733 1-806): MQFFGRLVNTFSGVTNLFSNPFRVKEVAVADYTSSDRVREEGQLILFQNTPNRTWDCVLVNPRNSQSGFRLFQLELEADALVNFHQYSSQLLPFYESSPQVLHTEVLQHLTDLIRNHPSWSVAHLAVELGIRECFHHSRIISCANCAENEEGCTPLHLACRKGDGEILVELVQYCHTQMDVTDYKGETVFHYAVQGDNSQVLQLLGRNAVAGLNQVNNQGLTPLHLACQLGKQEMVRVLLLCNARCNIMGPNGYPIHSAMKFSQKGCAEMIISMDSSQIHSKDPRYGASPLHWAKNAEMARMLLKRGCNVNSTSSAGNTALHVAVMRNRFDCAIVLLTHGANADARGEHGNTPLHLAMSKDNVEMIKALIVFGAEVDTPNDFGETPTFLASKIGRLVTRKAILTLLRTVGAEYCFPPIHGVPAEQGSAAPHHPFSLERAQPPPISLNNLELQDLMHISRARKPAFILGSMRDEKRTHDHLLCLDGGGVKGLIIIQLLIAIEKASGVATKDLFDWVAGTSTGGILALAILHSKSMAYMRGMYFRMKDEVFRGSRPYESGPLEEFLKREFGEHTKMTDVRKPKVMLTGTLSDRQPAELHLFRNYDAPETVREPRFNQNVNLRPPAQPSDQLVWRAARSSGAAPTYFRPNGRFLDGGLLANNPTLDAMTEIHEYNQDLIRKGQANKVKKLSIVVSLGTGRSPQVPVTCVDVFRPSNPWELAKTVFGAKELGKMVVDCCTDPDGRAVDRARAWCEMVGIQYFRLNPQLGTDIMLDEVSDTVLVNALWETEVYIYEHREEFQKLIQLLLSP

spinal release of PGE2 = test: Intrathecal dialysis and PGE2 assay; assay type: in vivo, rat; conditions: 3 mg/kg IP pretreatment
Excerpt: For spinal drug injections, lumbar catheters were implanted in rats under isoflurane anesthesia according to a modification of the procedure described by Yaksh (Yaksh and Rudy, supra, 1976). A polyethylene catheter (PE-5; Spectranetics, 0.014 in OD) was inserted into the intrathecal space and advanced to the rostral edge of the lumbar enlargement through an incision in the atlanto-occipital membrane. Five days after implantation rats were entered into the study. In separate experiments to assess spinal prostaglandins release, rats were prepared with lumbar loop dialysis catheters with three lumens, as previously described, see (Yaksh, et al., supra, 2001).
In brief, the outer two lumens were connected to a length of dialysis tubing (10 Kda cut off). The catheter was then implanted intrathecally using the same technique as described above for the intrathecal catheter. A three-day interval was allowed to elapse prior to including the animal in a study. In all cases, the exclusion criteria were i) presence of any neurological sequelae, ii) 20% weight loss after implantation, or iii) catheter occlusion.
Spinal dialysis experiments to define the spinal release of PGE2 were conducted in unanesthetized rats 3 days after dialysis catheter implantation. A syringe pump (Harvard, Natick, Mass.) was connected and dialysis tubing was perfused with artificial cerebro spinal fluid (ACSF) at a rate of 10 μl/min. The ACSF contained (mM) 151.1 Na^+, 2.6 K^+, 0.9 Mg^2+, 1.3 Ca^2+, 122.7 Cl^−, 21.0 HCO3, 2.5 HPO4 and 3.5 dextrose and was bubbled with 95% O2/5% CO2 before each experiment to adjust the final pH to 7.2. The efflux (20 min per fraction) was collected in an automatic fraction collector (Eicom, Kyoto, Japan) at 4° C. […] The concentration of PGE2 in spinal dialysate was measured by ELISA using a commercially available kit (Assay Designs 90001, Assay Designs, Ann Arbor, Mich.). The antibody is selective for PGE2 with less than 2.0% cross-reactivity to PGF1, PGF2, 6-ketoPGF1, PGA2 or PGB2, but cross-reacts with PGE1 and PGE3.

Structure (SMILES) | inhibition of GVIA PLA2 (iPLA2), in words [1] | Group VIA XI(50), class ([1]; at 0.091 mole fraction) | Inhibition of GVIA PLA2 ([1]; at highest dose) | IT SP-evoked release of PGE2 in spinal dialysate (spinal release of PGE2) | Group VIA XI(50) (mole fraction) ([1]; Table 1b)
CCC(=O)C(=O)NCCCC(=O)OC [AX010] | limited inhibition of GVIA PLA2 | L.D. (between 25% and 50% inhibition at 0.091 mole fraction) | LD (limited inhibition (25-50%) at highest dose) | significant increase as compared to vehicle only | –
CCCCCCCCCCCCCCC(=O)C(=O)NCCCC(=O)OCC [AX048, Ethyl 4-[(2-oxohexadecanoyl)amino]butanoate] | – | – | – | significant inhibitory effect upon PGE2 synthesis and release | 0.027 ± 0.009
